The results in this text go back to patent publication US20100240718A1, “NOVEL HETEROARYL-SUBSTITUTED ACETONE DERIVATIVE, SUITABLE FOR INHIBITING PHOSPHOLIPASE A2” (WESTFALISCHE WILHELMS UNIVERSITÄT MÜNSTER, priority 2007, published 2010).

Bounds are passed on as bounds.

Data set [1] can be described thus: Determining water solubility in phosphate buffered saline (pH 7.4), HPLC. To be noted: phosphate buffered saline (PBS buffer), aqueous buffer, thermodynamic from solid; PBS buffer pH 7.4; range or bound stated jointly for the listed compounds. The format is physicochemical. As to the method: The water solubility of the compounds was determined by administering aqueous phosphate buffer (pH 7.4) to each respective compound, and the dissolved amount was determined after shaking and centrifugation, as is described in example 12.
The determination of the water solubility of the compound was accomplished, if not hereinafter stated otherwise, with reference to the method published by Kim et al., J. Med. Chem. 2005, 48, 3621-3629.
The mixture was placed in an ultrasonic bath (Sonorex TK52, Bandelin) for 10 minutes and then shaken lightly in a shaking water bath (GFL 1083). Subsequently, the mixture was centrifuged for 10 minutes at 4000×g and room temperature. About 1 ml clear solution was taken from the supernatant. 200 μl of the clear solution were mixed with 250 μl acetonitrile (VWR) and 50 μl 0.1 M phosphoric acid. From this solution, a volume of between 5 μl and 100 μl was injected into an HPLC system (Waters, Waters 717plus Autos ampler, Waters 515 pump, and Waters 2487 UV detector)
For reference solution 1, 2 μl of a 5 mM solution of the respective compound in dimethyl sulfoxide (DMSO) were mixed with 198 μl PBS buffer, 250 μl acetonitrile, and 50 μl 0.1 M phosphoric acid. For reference solution 2, 2 μl of a 5 mM solution of the respective compound in DMSO were mixed with 398 μl PBS buffer, 500 μl acetonitrile, and 100 μl 0.1 M phosphoric acid.
C18 Aqua®-columns from the company Phenomenex (Aqua®, RP18, 75×4.6 mm, 3 μm) were used as the stationary phase.
were determined under corresponding conditions.

In data set [2] the target is T1, cytosolic phospholipase A2 (Homo sapiens, UniProt P47712).
T1 construct: cytosolic phospholipase A2 obtained from human thrombocytes; from tissue; host or cells: human thrombocytes (platelets)
T1 sequence (P47712 1-749): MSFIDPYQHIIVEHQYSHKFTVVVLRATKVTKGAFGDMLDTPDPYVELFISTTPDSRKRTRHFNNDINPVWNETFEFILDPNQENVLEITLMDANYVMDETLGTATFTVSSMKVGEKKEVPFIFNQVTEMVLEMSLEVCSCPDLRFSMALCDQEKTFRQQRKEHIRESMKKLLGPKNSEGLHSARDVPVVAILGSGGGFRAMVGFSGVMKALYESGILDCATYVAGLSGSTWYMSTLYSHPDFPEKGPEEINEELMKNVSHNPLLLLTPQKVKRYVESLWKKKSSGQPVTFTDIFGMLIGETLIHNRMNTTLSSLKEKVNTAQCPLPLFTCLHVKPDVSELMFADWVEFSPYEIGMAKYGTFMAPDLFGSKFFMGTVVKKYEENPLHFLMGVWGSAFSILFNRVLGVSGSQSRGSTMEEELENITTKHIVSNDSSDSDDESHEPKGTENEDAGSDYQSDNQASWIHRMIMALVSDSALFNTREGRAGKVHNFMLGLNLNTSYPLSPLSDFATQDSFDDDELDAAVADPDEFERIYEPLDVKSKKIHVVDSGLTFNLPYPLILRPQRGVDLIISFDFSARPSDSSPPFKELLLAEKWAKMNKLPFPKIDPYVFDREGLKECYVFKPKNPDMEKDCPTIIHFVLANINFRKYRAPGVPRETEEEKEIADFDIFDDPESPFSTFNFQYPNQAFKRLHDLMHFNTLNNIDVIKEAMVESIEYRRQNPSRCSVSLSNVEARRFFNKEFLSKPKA
Nature of the data set: Inhibition of cytosolic phospholipase A2 isolated from human thrombocytes (arachidonic acid release from SAPC, HPLC-UV). Conditions: for inhibition at 0.1 µM: read-out: inhibition of the activity of cytosolic phospholipase A2 compared to the control value. It is filed as biochemical. As to the method: The effectiveness of the inventive compounds is determinable by referring to the inhibition of the cytosolic phospholipase A2. For this purpose, cytosolic phospholipase A2 that had been isolated from human thrombocytes was used.
The IC50 value of the compounds for the inhibition of cytosolic phospholipase A2 corresponds to the concentration of the compounds that is necessary to reduce the activity of the enzyme by 50%.
The IC50 values were calculated from the values of cytosolic phospholipase A2 inhibition obtained from different concentrations with the help of the Probit model (see Hartke, Mutschler, DAB 9 Kommentar Band 1 S. 733-734, Wissenschaftliche Verlagsgesellschaft Stuttgart 1978).
The effectiveness of the inventive compounds was determined based on the inhibition of cytosolic phospholipase A2. The determination was accomplished, if not described otherwise hereinafter, as was described in Schmitt, M.; Lehr, M., “HPLC assay with UV spectrometric detection for the evaluation of inhibitors of cytosolic phospholipase A2” J. Pharm. Biomed. Anal. 2004, 35, 135-142.
Cytosolic phospholipase A2 that had been isolated from human thrombocytes was used as the enzyme source.
To produce a solution of covesicles from the substrate 1-stearoyl-2-arachidonoyl-sn-glycero-3-phosphocholine (SAPC) (Sigma) and 1,2-dioleoyl-sn-glycerol (DOG) (Sigma), corresponding amounts of the chloroform solution from SAPC (10 mg/ml) and DOG (5 mg/ml) were mixed and then the chloroform was steamed away in a stream of nitrogen. The residue was mixed with enough Tris buffer ([…], 1 mM dithiothreitol, 150 mM NaCl, 1 mM CaCl2, ph 8 at 20° C.) that a concentration for SAPC of 0.26 mM and a concentration for DOG of 0.13 mM were present. The mixture was homogenized for 10 minutes in an ultrasonic bath at 35° C. for the purpose of forming covesicles.
2 μl of the solution of the respective compound in DMSO (made from a 5 mM stock solution in DMSO) or, in the case of the control value, 2 μl of DMSO, were each mixed with 78 μl of the substrate mixture in Eppendorf tubes.
After 10 minutes of preincubation in a water bath at 37° C., 20 μl of the solution of cytosolic phospholipase A2 obtained from human thrombocytes were added to each of the […] and this mixture was incubated for another 60 minutes at 37° C. The incubation preparations contained 0.20 mM SAPC and 0.10 mM DOG per 100 μl. After that, the enzyme reaction was stopped by adding 400 μl of a solution of acetronitrile/methanol/0.1 M aqueous EDTA-solution in ratios 16:15:1 (v/v/v), whereby this solution contained 3 μg/ml nordihydroguaiaretic acid (NDGA) (Sigma) as antioxidant and 1.55 μg/ml 4-undecyloxybenzoic acid as internal standard. Subsequently, the samples were placed in ice for 10 to 15 minutes and then stored at −20° C. until solid phase extraction.
The octadecyl solid phase extraction columns with a bed volume of 200 mg and a capacity of 3 ml (Baker) were initially washed with 6 ml methanol and then with 6 ml water. The samples were diluted with 2 ml 0.005 M aqueous NaOH and then introduced to the solid phase columns. […] The eluate was mixed with 600 μl water. 100 μl of this solution was injected into the HPLC apparatus (Waters, Waters 717plus Autosampler, Waters 515 pump, and Waters 2487 UV detector). Data analysis was accomplished using the software program Millennium. For the column, a Nucleosil 100-3 C18 column (125×3 mm) with a Nucleosil 100-3 C18 pre-column (20×3 mm) (CS-Chromatographie-Service, Langerwehe) was used. The flow rate was 0.4 ml/min; the detection wavelength was 200 nm. A mixture of acetonitrile/water/phosphoric acid (85%) in ratios 770:230:1 (v/v/v) was used for the flow medium. The chromatogram run time was 30 minutes. Before the next injection, the column was always equilibrated for 15 minutes.

Data set [3] has as its system contact dermatitis induced by benzalkonium chloride. Nature of the data set: Anti-inflammatory properties in vivo, contact dermatitis induced by benzalkonium chloride (ear swelling). Conditions: topical, 10 μl of a 1% solution in acetone (0.1 mg/ear), BALB/c mice, measured 1 to 72 hours. Here is the method: The determination of the anti-inflammatory properties in vivo in the model of contact dermatitis induced by benzalkonium chloride was accomplished, if not stated otherwise hereinafter, according to the method published by E. Hyun et al., British Journal of Pharmacology, 2004, 143, S. 618-625.
BALB/c mice (Harlan Winkelmann GmbH, Borchen) were used as laboratory animals. A contact dermatitis was induced by introducing 10 μl per ear of a 5% benzalkonium chloride solution (Sigma) in olive oil/acetone (1:5) to the dorsal side of both ears for each of 8 lab animals per experimental group. This led to a swelling of the ears.
After 1 hour, 3 hours, 5 hours, 7 hours, 24 hours, 48 hours, and 72 hours, the ear thicknesses were measured using a digital caliper (Roth, Karlsruhe).

One may read the solubility as the dissolved amount per volume that the medium holds. Read a low solubility as little dissolved substance. In turn, `CCCCCCCCc1ccc(OCC(=O)Cn2cc(C(=O)OC)c3cc(C(=O)O)ccc32)cc1` [formula (11), reference compound] yielded a solubility in data set [1] of less than 1 µg/mL.
In general, IC50 refers to the concentration at which inhibition is half-maximal. A word on the inhibition: it is the change of the read-out against control, counted positive when it falls. With `COC(=O)CCC(=O)c1cn(CC(=O)COc2ccc(Oc3ccc(C(F)(F)F)cc3)cc2)c2ccc(C(=O)O)cc12` [formula (5), 3-(3-methoxycarbonylpropanoyl)-1-{2-oxo-3-[4-(4-trifluormethylphenoxy)phenoxy]propyl}indole-5-carboxylic acid], the solubility in data set [1] lay in the range of 15 to 35 µg/mL. In data set [2], inhibition was half-maximal at 22 nM (IC50) and the inhibition at 0.1 µM was in the range of 30 to 97%.
In the case of `CCCCCCCCc1ccc(OCC(=O)Cn2cc(C(=O)CCCC(=O)O)c3cc(C(=O)O)ccc32)cc1` [formula (2), 3-(4-carboxybutanoyl)-1-[3-(4-octylphenoxy)-2-oxopropyl]indole-5-carboxylic acid], the inhibition at 0.1 µM in data set [2] was 30 to 97%.
In the case of `O=C(O)CCC(=O)c1cn(CC(=O)COc2ccc(Oc3ccc(C(F)(F)F)cc3)cc2)c2ccc(C(=O)O)cc12` [formula (4), 3-(3-carboxypropanoyl)-1-{2-oxo-3-[4-(4-trifluormethylphenoxy)phenoxy]propyl}indole-5-carboxylic acid], the solubility in data set [1] lay within 190 to 410 µg/mL. Further, in data set [2], it took 190 nM to reach half-maximal inhibition (IC50) and the inhibition at 0.1 µM lay within 30 to 97%.
The molecule `CCCCCCCCc1ccc(OCC(=O)Cn2cc(C(C)=O)c3cc(C(=O)O)ccc32)cc1` [formula (10), reference compound] registered a solubility in data set [1] of less than 1 µg/mL.
In the case of `CCCCCCCCc1ccc(OCC(=O)Cn2cc(C(=O)CCCCC(=O)O)c3cc(C(=O)O)ccc32)cc1` [formula (3), 3-(5-carboxypentanoyl)-1-[3-(4-octylphenoxy)-2-oxopropyl]indole-5-carboxylic acid], the “increase in ear thickness compared to the negative control” value in data set [3] is “significantly decreased increase in ear thickness”.
As for `CCCCCCCCc1ccc(OCC(=O)Cn2cc(C(=O)C(F)(F)F)c3cc(C(=O)O)ccc32)cc1` [formula (6), 1-[3-(4-octylphenoxy)-2-oxopropyl]-3-(2,2,2-trifluoracetyl)indole-5-carboxylic acid], the inhibition at 0.1 µM in data set [2] was 30 to 97%.
